Data as given in patent US20240254135A1, “POLYPHENOL COMPOUNDS” (Epirium Bio Inc., priority 2022, published 2024).

Experiments:
[1] = target: T1, mitochondrial ATP synthase (Mus musculus, UniProt P56480+Q03265); test: Maximal ATP hydrolysis capacity in frozen heart mitochondria; format: biochemical; details: frozen mitochondria (FIGS. 3 and 4)
T1 construct: from tissue; host or cells: mouse heart, isolated mitochondria (fresh or frozen)
Method: ATP hydrolysis capacity or state 4 acidification was measured using Seahorse XF96 as described in Divakaruni et al. (2018) Anal Biochem 552:60-65 and Acin-Perez et al. (2021) Life 11(9):949, in MAS (70 mM Sucrose, 220 mM Mannitol, 5 mM KH2PO4, 5 mM MgCl2, 1 mM EGTA, 2 mM HEPES; pH 7.2). Plates were loaded with 0.75-1.5 μg of mouse heart mitochondria, or 25 μg of cell lysate. Cell lysates were prepared by subjecting the samples to 4 cycles of free thaw (liquid nitrogen—37° C. water bath) before measuring protein concentration. When assessing compounds effect on respirometry, the compounds were added in MAS after sample centrifugation. Initial respiration of the samples was sustained by the addition of 5 mM succinate+2 μM rotenone in the MAS after centrifugation. Injections were performed at the following final concentration in the well: Antimycin A (2 μM), oligomycin (5 μM), FCCP (1 μM), ATP (20 mM). To assess maximal ATP concentration, ATP was injected consecutively.
An additional assay was developed to determine the maximal ATP hydrolysis capacity in frozen mitochondria. Maximal ATP hydrolytic capacity was assessed in frozen heart mitochondria where mitochondrial respiration is inhibited by Antimycin A and maximal ATP hydrolysis is driven by co-injection of FCCP and ATP, followed by inhibition in the presence of oligomycin.

[2] = target: T1, mitochondrial ATP synthase; test: ATP synthesis (oxygen consumption, Seahorse XF96) in fresh heart mitochondria; format: biochemical
Description: To assess whether the fraction of synthetic and reverse hydrolytic activities of mitochondrial ATP synthase can be measured in the same preparation, a protocol was developed to monitor changes in oxygen consumption and proton release in response to changes in mitochondrial ATP synthase activity. The proton released and the concomitant changes in the pH can be monitored using the ECAR (extracellular acidification) channel in the Agilent Seahorse XF analyzer using isolated mitochondria, to ensure that the changes in pH cannot be attributed to glycolysis or other contributors to ECAR.
Mice were anesthetized with isoflurane followed by a cervical dislocation, and the heart was immediately removed and placed in ice cold relaxation buffer (5 mM sodium pyrophosphate, 100 mM KCl, 5 mM EGTA, 5 mM HEPES; pH 7.4). The heart was squeezed with tweezers to remove blood, minced with scissors, and then placed in a glass-glass Dounce homogenizer with 3 mL of HES homogenization buffer (250 mM sucrose, 5 mM HEPES, 1 mM EDTA; pH to 7.2, adjusted with KOH). The heart tissue was homogenized first with the loose pestle and followed by the tight pestle. The homogenized tissue was placed in a pre-chilled 15 ml conical tube and centrifuged at 900×g (4° C.) for 10 minutes (min). The supernatant was removed, placed in a new tube and centrifuged again at 900×g for 10 min. The supernatant was then transferred to 2 mL microcentrifuge tubes and centrifuged at 10,000×g (4° C.) for 10 min. The mitochondrial pellets were re-suspended in ice cold HES buffer and mitochondrial protein was measured with a BCA assay (Pierce). The concentrated mitochondrial pellet was stored on ice.
Heart mitochondria (0.75-1.5 μg) were loaded into a Seahorse XF96 microplate in 20 μL of MAS (70 mM Sucrose, 220 mM Mannitol, 5 mM KH2PO4, 5 mM MgCl2, 1 mM EGTA, 2 mM HEPES; pH 7.2) plus 1% free fatty acid BSA containing substrates. The loaded plate was centrifuged at 2,000×g for 5 min at 4° C. […]
Oxygen consumption was measured in isolated fresh intact mitochondria from mouse heart, as oxygen consumption is linked to maximal ATP synthesis and proton release when mitochondria are respiring either in the presence of substrates and ADP (ATP synthesizing mitochondria or state 3) or in the presence of substrates but not ADP (state 4). […]
OCR and ECAR were measured in a Seahorse XF96 analyzer under basal conditions as well as after injection of 2 μM oligomycin, two sequential additions of 1.5 μM FCCP, followed by 1 μM rotenone with 2 μM antimycin A. Respiratory parameters were calculated according to standard protocols, and all rates were corrected for non-mitochondrial respiration/background signal by subtracting the oxygen consumption rate insensitive to rotenone plus antimycin A.

Compound: Oc1ccc2c(c1)OC(c1ccc(O)c(C(F)(F)F)c1)C(O)C2 (single isomer, unassigned) [Compound 77b, 2-(4-hydroxy-3-(trifluoromethyl)phenyl)chromane-3,7-diol]
- decrease in hydrolysis [1]: 25%
- change in ATP synthesis ([2]; Complex I substrates, fresh mitochondria): no change
- change in ATP synthesis ([2]; Complex II substrates, fresh mitochondria): no change
- change in ATP synthesis ([2]; fresh heart mitochondria (FIG. 1, FIG. 2)): no change
